Structures can show the parent of a compound that is named as a salt. Where two headings read alike, the source gives them in different places.
Key:
[1] = test system: stereotypes provoked by apomorphine; experiment: antagonism to stereotypes provoked by apomorphine; assay type: in vivo, male rats; details: rat, oral, read-out: ED50 (DE50), apomorphine sterotypes
Method: A. antagonism to stereotypes provoked by apomorphine
This test was conducted on groups of 5 male rats in individual cages with the procedure of Janssen et al [Arzn. Forsch., Vol. 15 (1965), p. 104-117 and Vol. 17 (1967), p. 841-854]. Each rat orally received the test compound and then, at variable times, an intraveinous injection of 1.5 mg of apomorphine hydrochloride in the veins of the penis. The times of injection were 1 hour, 24 hours, 2 days, 3 days or 4 days after the test product administration and the rats were studied during 1 minute after 5,10 and 15 minutes after the injection and the stereotype movements of the jaws spheres were evaluated for their degree of intensity on a scale for 0 to 3 /Boissier et al, Therapie, Vol. 25 (1970), p. 939-949/. The ED50 was determined at the maximum of the effect for the time considered that is to say the dose reducing the symptoms by 50% in the treated animals as compared to control animals and the results are reported in Table I.

[2] = test system: toxicity provoked by amphetamine; experiment: antagonism to toxicity provoked by amphetamine; assay type: in vivo, male mice; details: mouse, oral, read-out: ED50 (DE50), amphetaminic toxicity
Method: B. antagonism to toxicity provoked by amphetamine
This test was effect on groups of 10 male mice grouped in crystallizers with a 20 cm diameter and a 9 cm height closed with a grilled lid. Each mouse orally received a determined dose of the test product and at different times a single intraperitoneal dose of dexamphetamine sulfate. The injection was effected 1 hour, 24 hours or 2,3,4 or 7 days after the administration of the test compound and the mortality for each group was determined 24 hours after the injection. The ED50, the dose at which the toxicity of dexamphetamine sulphate was reduced by 50%, was determined and the results are reported in Table I.

[3] = test system: histamine hydrochloride lethality; experiment: antihistaminic activity (protection against lethal histamine dose); assay type: in vivo, guinea pigs; details: guinea pig, oral 10 mg/kg
Method: E. antihistaminic Activity
This test was effected on guinea pigs which received orally a single dose of 10 mg/kg of the test product and then a intraveinous injection of 0.8 mg/kg of histamine hydrochloride 1 hour or 24 hours thereafter. This histamine dose is the minimum lethal dose for 100% of the animals within about 3 minutes and after 10 minutes, any surviving animals were considered to be protected. Each product was rated to see if 50% of the animals were alive at this dose and the values of Table IV show at least 50% protected by + and less than 50% protected by 0.

[4] = test system: stereotypes provoked by amphetamine; experiment: antagonism to stereotypes provoked by amphetamine; assay type: in vivo, rats; details: for % protection: rat
Method: C. antagonism to stereotypes provoked by amphetamine
This test with the product of Example 2 was effected on groups of 5 rats with the rats individually held in cages and after the rats received intraperitoneally or subcutaneously an aqueous suspension of the product at a dose of 10 mg/kg, each rat received intraperitoneally at different times a single injection of 8 mg/kg of dexamphetamine sulfate. The second injections were made 1 hour or 1,3 or 7 days after the first injection and the results were determined by the procedure of Halliwel et al [Brit. J. Pharmacol., Vol. 23 (1964), p. 330-350].

[5] = test system: vomitting provoked by apomorphine; experiment: antagonism against vomitting provoked by apomorphine; assay type: in vivo, dogs; details: dog
Method: D. antagonism against vomitting provoked by apomorphine
This test was effected on 3 dogs on whom the number of vomits provoked by a single subcutaneous injection of 0.1 mg/kg of apomorphine hydrochloride 8 days before this test. Each dog received subcutaneously an injection of an aqueous suspension of 0.3 mg/kg or 0.8 mg/kg of the product of Example 2 and an injection of 0.1 mg/kg of apomorphine hydrochloride 30 minutes, 7 days, 14 days, 21 days, 28 days, 35 days and 42 days thereafter.

[6] = acute toxicity; details: mouse, in vivo, Swiss mice, mortality at 72 hours
Method: The acute toxicity of the product of Example 2 was determined on groups of 10 mice of the Swiss strain weighing about 20 g receiving increasing doses orally or intraperitoneally of the test product. The mortality was determined 72 hours after the product administration.

[7] = 48 h, apomorphine 2 d after test product
[8] = 72 h, apomorphine 3 d after test product
[9] = apomorphine 1 h after test product
[10] = apomorphine 24 h after test product
[11] = 48 h, dexamphetamine 2 d after test product
[12] = 72 h, dexamphetamine 3 d after test product
[13] = 96 h, dexamphetamine 4 d after test product
[14] = dexamphetamine 1 h after test product
[15] = dexamphetamine 24 h after test product
[16] = 96 h, apomorphine 4 d after test product
[17] = 168 h, dexamphetamine 7 d after test product

Clc1ccc2c(c1)N(CCCN1CCC(c3c[nH]c4ccccc34)CC1)c1ccccc1S2 [Example 5, 4-(3'-indolyl)-1'-[γ-(2"-chloro-10"-phenothiazinyl)-propyl]-piperidine hydrochloride]
ED50 [1, 7]: 12 mg/kg | ED50 [1, 8]: 27 mg/kg | ED50 [1, 9]: > 50 mg/kg | ED50 [1, 10]: < 10 mg/kg | ED50 [2, 11]: < 10 mg/kg | ED50 [2, 12]: 10 mg/kg | ED50 [2, 13]: 17 mg/kg | ED50 [2, 14]: 16 mg/kg | ED50 [2, 15]: < 10 mg/kg | Protection against histamine ([3]; after 1 hour): + (at least 50% protected) | Protection against histamine ([3]; after 24 hours): + (at least 50% protected)

FC(F)(F)c1ccc2c(c1)N(CCCN1CCC(c3c[nH]c4ccccc34)CC1)c1ccccc1S2 [Example 2, 4-(3'-indolyl)-1-[γ-(2"-trifluoromethyl-10"-phenothiazinyl)-propyl]-piperidine hydrochloride]
ED50 [1, 7]: 18 mg/kg | ED50 [1, 8]: 17 mg/kg | ED50 [1, 16]: 33 mg/kg | ED50 [1, 9]: > 50 mg/kg | ED50 [1, 10]: < 10 mg/kg | ED50 [2, 11]: < 10 mg/kg | ED50 [2, 12]: 50 mg/kg | ED50 [2, 14]: < 10 mg/kg | ED50 [2, 15]: < 10 mg/kg | antagonistic effect against the stereotypes provoked by amphetamine (in words) ([4]; injected intraperitoneally or subcutaneously): important antagonistic effect of prolonged duration | % protection ([4]; intraperitoneal 10 mg/kg, after 1 hour): 39% | % protection ([4]; intraperitoneal 10 mg/kg, after 1 day): 77% | % protection ([4]; intraperitoneal 10 mg/kg, after 3 days): 68% | % protection ([4]; intraperitoneal 10 mg/kg, after 7 days): 61% | % protection ([4]; subcutaneous 10 mg/kg, after 1 hour): 17% | % protection ([4]; subcutaneous 10 mg/kg, after 1 day): 84% | % protection ([4]; subcutaneous 10 mg/kg, after 3 days): 60% | % protection ([4]; subcutaneous 10 mg/kg, after 7 days): 14% | neuroleptic activity (Table III, in words) ([5]; subcutaneous): important prolonged neuroleptic activity | % of protection ([5]; subcutaneous 0.3 mg/kg, after 30 min): 24% | % of protection ([5]; subcutaneous 0.3 mg/kg, after 7 d): 86% | % of protection ([5]; subcutaneous 0.3 mg/kg, after 14 d): 57% | % of protection ([5]; subcutaneous 0.3 mg/kg, after 21 d): 29% | % of protection ([5]; subcutaneous 0.3 mg/kg, after 28 d): 10% | % of protection ([5]; subcutaneous 0.8 mg/kg, after 30 min): 0% | % of protection ([5]; subcutaneous 0.8 mg/kg, after 7 d): 100% | % of protection ([5]; subcutaneous 0.8 mg/kg, after 14 d): 95% | % of protection ([5]; subcutaneous 0.8 mg/kg, after 21 d): 84% | % of protection ([5]; subcutaneous 0.8 mg/kg, after 28 d): 79% | % of protection ([5]; subcutaneous 0.8 mg/kg, after 35 d): 42% | % of protection ([5]; subcutaneous 0.8 mg/kg, after 42 d): 21% | Protection against histamine ([3]; after 1 hour): + (at least 50% protected) | Protection against histamine ([3]; after 24 hours): 0 (less than 50% protected) | LD50 at 72 h ([6]; ip, intraperitoneal): ~300 mg/kg | LD50 at 72 h ([6]; oral): > 1600 mg/kg

COc1ccc2c(C3CCN(CCCN4c5ccccc5Sc5ccc(C(F)(F)F)cc54)CC3)c(C)[nH]c2c1 [Example 4, 4-(2'-methyl-6'-methoxy-3'-indolyl)-1-[γ-(2"-trifluoromethyl-10"-phenothiazinyl)-propyl]-piperidine hydrochloride]
ED50 [1, 7]: 9 mg/kg | ED50 [1, 8]: 16 mg/kg | ED50 [1, 16]: 25 mg/kg | ED50 [1, 9]: > 50 mg/kg | ED50 [1, 10]: 9 mg/kg | ED50 [2, 11]: < 10 mg/kg | ED50 [2, 12]: 9 mg/kg | ED50 [2, 13]: 9 mg/kg | ED50 [2, 17]: 50 mg/kg | ED50 [2, 14]: 10 mg/kg | ED50 [2, 15]: < 10 mg/kg

CC(CN1CCC(c2c[nH]c3ccccc23)CC1)CN1c2ccccc2Sc2ccc(C(F)(F)F)cc21 (stereo not drawn) [Example 7, 4-(3'-indolyl)-1-[β-methyl-γ-(2"-trifluoromethyl-10"-phenothiazinyl)-propyl]-piperidine hydrochloride]
ED50 [1, 7]: 10 mg/kg | ED50 [1, 8]: < 10 mg/kg | ED50 [1, 16]: 12 mg/kg | ED50 [1, 9]: > 20 mg/kg | ED50 [1, 10]: 10 mg/kg | ED50 [2, 11]: < 10 mg/kg | ED50 [2, 12]: 13 mg/kg | ED50 [2, 13]: < 10 mg/kg | ED50 [2, 17]: 19 mg/kg | ED50 [2, 14]: > 20 mg/kg | ED50 [2, 15]: < 10 mg/kg | Protection against histamine ([3]; after 1 hour): 0 (less than 50% protected) | Protection against histamine ([3]; after 24 hours): + (at least 50% protected)

COc1ccc2[nH]cc(C3CCN(CCCN4c5ccccc5Sc5ccc(C(F)(F)F)cc54)CC3)c2c1 [Example 3, 4-(5'-methoxy-3'-indolyl)-1-[γ-(2"-trifluoromethyl-10"-phenothiazinyl)-propyl]-piperidine hydrochloride]
ED50 [1, 7]: < 10 mg/kg | ED50 [1, 8]: 12 mg/kg | ED50 [1, 16]: 20 mg/kg | ED50 [1, 9]: > 50 mg/kg | ED50 [1, 10]: < 10 mg/kg | ED50 [2, 11]: < 10 mg/kg | ED50 [2, 12]: < 10 mg/kg | ED50 [2, 13]: < 10 mg/kg | ED50 [2, 14]: < 10 mg/kg | ED50 [2, 15]: < 10 mg/kg

COc1ccc2c(c1)N(CC(C)CN1CCC(c3c[nH]c4ccccc34)CC1)c1ccccc1S2 (stereo not drawn) [Example 8, 4-(3'-indolyl)-1-[γ-(2"-methoxy-10"-phenothiazinyl)-β-methylpropyl]-piperidine hydrochloride]
ED50 [1, 7]: 12 mg/kg | ED50 [1, 8]: 30 mg/kg | ED50 [1, 9]: > 50 mg/kg | ED50 [1, 10]: < 10 mg/kg | ED50 [2, 11]: < 10 mg/kg | ED50 [2, 12]: 18 mg/kg | ED50 [2, 14]: < 10 mg/kg | ED50 [2, 15]: < 10 mg/kg | Protection against histamine ([3]; after 1 hour): 0 (less than 50% protected) | Protection against histamine ([3]; after 24 hours): + (at least 50% protected)

COc1ccc2c(c1)N(CCCN1CCC(c3c[nH]c4ccccc34)CC1)c1ccccc1S2 [Example 6, 4-(3'-indolyl)-1-[γ-(2"-methoxy-10"-phenothiazinyl)-propyl]-piperidine hydrochloride]
ED50 [1, 7]: 45 mg/kg | ED50 [1, 9]: > 50 mg/kg | ED50 [1, 10]: < 10 mg/kg | ED50 [2, 11]: 10 mg/kg | ED50 [2, 14]: < 10 mg/kg | ED50 [2, 15]: < 10 mg/kg | Protection against histamine ([3]; after 1 hour): 0 (less than 50% protected) | Protection against histamine ([3]; after 24 hours): + (at least 50% protected)

c1ccc2c(c1)Sc1ccccc1N2CCCN1CCC(c2c[nH]c3ccccc23)CC1 [Example 1, 4-(3'-indolyl)-1-[γ-(10"-phenothiazinyl)-propyl]-piperidine.HCl]
ED50 [1, 9]: > 50 mg/kg | ED50 [1, 10]: 35 mg/kg | ED50 [2, 14]: < 10 mg/kg | ED50 [2, 15]: < 10 mg/kg | Protection against histamine ([3]; after 1 hour): 0 (less than 50% protected) | Protection against histamine ([3]; after 24 hours): + (at least 50% protected)

From patent publication US3988453A, “Novel phenothiazines as neuroleptics” (Roussel-UCLAF, priority 1974, dated 1976)
